Source: ChEMBL document CHEMBL1201862, “PubChem BioAssay data set” (2004)
Structures can show the parent of a compound that is named as a salt.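 Method: 48-hour compound exposure of cells in 96-well plates, five concentrations, linear interpolation of endpoints. Abbreviation: GI50, concentration required for 50% inhibition of growth.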 Activity calls are given as the source filed them. Rule as the data show it: active = GI50 up to about 1.1 µM and inactive = higher. Residues, ends and D or L forms follow the SMILES beside them. *: point of attachment. Tfa = O=C(C(F)(F)F)*

Key:
Assay in all cases: DTP human tumour cell line panel, 48 h
[1] = system: HT-29
[2] = system: OVCAR-8
[3] = system: DU-145
[4] = system: SNB-19
[5] = system: T47D
[6] = system: SK-MEL-5
[7] = system: HCC 2998
[8] = system: RXF 393
[9] = system: LOX IMVI
[10] = system: SW-620
[11] = system: UACC-257
[12] = system: NCI-H23
[13] = system: MDA-N
[14] = system: A549
[15] = system: A498
[16] = system: PC-3
[17] = system: BT-549
[18] = system: EKVX
[19] = system: HOP-92

Measured: GI50

CC(C)c1ccc2c(c1)/C(=C1/Nc3ccccc3/C1=N/O)C(=O)N2
inactive: [1] 4.69 µM | [2] 2.79 µM | [3] 6.07 µM | [4] 16.4 µM | [5] 3.88 µM | [6] 3.82 µM | [7] 4.75 µM | [8] 2.07 µM | [9] 5.07 µM | [10] 5.11 µM | [11] 12.1 µM | [12] 3.93 µM | [13] 6.73 µM | [14] 6.28 µM | [15] 2.78 µM | [16] 6.64 µM | [17] 7.13 µM | [18] 4.51 µM

O=C(/C=C(\S/C=C(/c1ccccc1)N1CCn2c(C(=O)c3ccccc3)c(C(=O)c3ccccc3)c(C(=O)c3ccccc3)c21)C(=O)c1ccccc1)c1ccccc1
inactive: [1] > 10 µM | [2] > 10 µM | [3] > 10 µM | [4] > 10 µM | [5] > 10 µM | [6] > 10 µM | [7] > 10 µM | [10] > 10 µM | [11] > 10 µM | [12] > 10 µM | [13] > 10 µM | [14] > 10 µM | [16] > 10 µM | [19] > 10 µM | [17] > 10 µM | [18] > 10 µM

O=C1CS(=O)(=O)C(c2cccc(Oc3ccccc3)c2)N1c1cc(Cl)ccc1Cl (configuration not stated)
inactive: [1] 20 µM | [2] 19.8 µM | [3] 17.9 µM | [4] 22.4 µM | [5] 15.6 µM | [6] 15.8 µM | [7] 18.8 µM | [9] 14 µM | [10] 34.4 µM | [11] 23.1 µM | [12] 29.1 µM | [13] 16.7 µM | [14] 38.2 µM | [16] 14.7 µM | [19] 18.2 µM | [17] 19 µM | [18] 35.2 µM

NC(Cc1ccc2nc3c4ccccc4c(=O)cc-3oc2c1)C(=O)O (configuration not stated)
inactive: [1] 71.3 µM | [3] > 100 µM | [4] > 100 µM | [5] > 100 µM | [6] 18 µM | [7] > 100 µM | [8] > 100 µM | [9] 45.8 µM | [10] > 100 µM | [11] 72.1 µM | [12] 17.6 µM | [13] 16 µM | [14] 44.2 µM | [16] > 100 µM | [19] > 100 µM | [17] > 100 µM | [18] > 100 µM

Cc1cccc2c(N)c3cccc(C(=O)NCC[N+](C)(C)[O-])c3nc12
inactive: [1] 6.01 µM | [2] 8.61 µM | [3] 3.02 µM | [4] 7.87 µM | [5] 13.8 µM | [6] 22.8 µM | [7] 10.2 µM | [8] 12.6 µM | [9] 10.4 µM | [10] 5.53 µM | [11] 20.6 µM | [12] 3.76 µM | [13] 14.2 µM | [14] 1.24 µM | [16] 13.5 µM | [19] 10.5 µM | [17] 15.2 µM | [18] 15.6 µM

CCOC(=O)CC[C@@H](NC(=O)c1ccc(NCc2ccc3nc(OC)c(OC)nc3c2)cc1)C(=O)OCC
inactive: [1] > 72.8 µM | [2] > 100 µM | [3] 58.2 µM | [4] > 100 µM | [5] 19.1 µM | [6] 13.6 µM | [7] 33.6 µM | [8] 25.5 µM | [9] 38.9 µM | [10] 80.7 µM | [11] 15.7 µM | [12] > 83.2 µM | [13] 30.1 µM | [14] > 100 µM | [16] 56.8 µM | [19] 11.4 µM | [17] > 67.3 µM | [18] > 78.3 µM

COC(=O)C(=O)C(C(=O)C(=O)Nc1ccccc1C(=O)OC)c1nc2ccc(C(=O)c3ccccc3)cc2nc1O (configuration not stated)
inactive: [1] 41.1 µM | [2] 39.4 µM | [5] 38.3 µM | [6] 53.7 µM | [8] 33.4 µM | [9] 87.3 µM | [10] 50 µM | [11] > 100 µM | [12] 64.3 µM | [13] 28.4 µM | [14] > 100 µM | [15] 81.5 µM | [16] 40.4 µM | [19] > 100 µM | [17] > 100 µM | [18] 80.4 µM

COc1ccccc1C1CC(=O)CC(c2ccccc2OC)C12C(=O)NC(=S)NC2=O (configuration not stated)
inactive: [1] 73.8 µM | [2] > 100 µM | [3] 57.9 µM | [4] > 100 µM | [5] 58.5 µM | [6] 50.2 µM | [7] 62.7 µM | [8] 59.4 µM | [9] 33.1 µM | [10] 48.5 µM | [11] 88.3 µM | [12] > 100 µM | [13] 18.2 µM | [16] 90.6 µM | [19] 43.3 µM | [17] > 100 µM | [18] > 100 µM

CC(C)(C)OC/C=C(\Br)CO
inactive: [1] > 100 µM | [2] > 100 µM | [3] > 100 µM | [4] > 100 µM | [5] > 100 µM | [7] > 100 µM | [8] > 100 µM | [10] > 100 µM | [11] > 100 µM | [12] > 100 µM | [13] > 100 µM | [14] > 100 µM | [15] > 100 µM | [16] > 100 µM | [17] > 100 µM | [18] > 100 µM

CC(C)[C@@H]1NC(=O)[C@H]2N=C(O[C@@H]2C)[C@@H]2CCCN2C(=O)[C@H](Cc2ccccc2)NC(=O)[C@@H]2CSC(=N2)[C@@H](Cc2ccccc2)NC(=O)[C@@H]2CSC1=N2
inactive: [1] 38.8 µM | [2] > 50 µM | [3] > 50 µM | [4] > 50 µM | [5] > 50 µM | [6] > 50 µM | [7] 21.9 µM | [8] 39 µM | [9] 23.7 µM | [10] > 50 µM | [11] > 50 µM | [12] > 50 µM | [13] > 50 µM | [14] 18.7 µM | [16] 21.8 µM | [17] > 50 µM | [18] > 50 µM

O=C(O)CC(NC(=O)C(F)(F)F)C(=O)NC(Cc1ccc(O)cc1)C(=O)O (stereo not drawn) (Tfa-Asp-Tyr-OH; configuration not given here)
inactive: [1] > 50 µM | [2] > 50 µM | [3] > 50 µM | [4] > 50 µM | [5] > 50 µM | [6] > 50 µM | [7] > 50 µM | [8] > 50 µM | [10] > 50 µM | [11] > 50 µM | [12] > 50 µM | [13] > 50 µM | [14] > 50 µM | [16] > 50 µM | [19] > 50 µM | [17] > 50 µM | [18] > 50 µM
